Results on 18 compounds are retold here after article PMC4569058, “High-Throughput Screening for Ligands of the HEPN Domain of Sacsin” (PLoS ONE, 2015).

Holding throughout (format): binding
For assay [1], the target named is T1, HEPN domain of sacsin (GST-HEPN) (Homo sapiens, UniProt Q9NZJ4).
T1 construct: The HEPN domain (residues 4441–4579) was purified as in Kozlov et al; made in house; host or cells: E. coli BL21
T1 sequence (Q9NZJ4 4441-4579): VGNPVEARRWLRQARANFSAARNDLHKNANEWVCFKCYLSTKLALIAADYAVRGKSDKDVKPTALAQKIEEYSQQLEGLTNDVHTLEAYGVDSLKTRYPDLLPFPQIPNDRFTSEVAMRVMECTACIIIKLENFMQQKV
The experiment in a line: FP competition assay (displacement of F12-ATP from GST-HEPN). On the procedure:
[…] The probe concentration was chosen to be the minimum concentration required to generate a sigmoidal binding curve. […] Next, a serial dilution of the competitor compounds (nucleotides and nucleotide analogs) starting at 10 mM were added. The fluorescence polarization signal in each well was measured on a SpectraMax M5e Microplate Reader.

Assay [2] concerns the target T2, 15N-HEPN (sacsin HEPN domain) (Homo sapiens, UniProt Q9NZJ4).
T2 construct: The HEPN domain (residues 4441–4579) was purified as in Kozlov et al; GST (N, cleaved yes); made in house; host or cells: E. coli BL21 (M9 minimal medium with 15NH4Cl)
T2 sequence (Q9NZJ4 4441-4579): T1 sequence (Q9NZJ4 4441-4579)
Briefly: 1H-15N HSQC NMR titration. Conditions: 100-400 μM 15N-HEPN, 20 mM Bis-tris pH 6.50, 70 mM NaCl, 303 K. On the procedure: Between 100 μM and 400 μM ^15N-HEPN were used for NMR titration experiments. Heteronuclear single quantum correlation (HSQC) spectra were acquired in 20 mM Bis-tris pH 6.50 and 70 mM NaCl at 303 K using Varian 800 MHz or Bruker 600 MHz NMR spectrometers. The data were processed by NMRPipe. NMR spectra were then generated and analyzed by NMRView. The 2D HSQC spectra were overlaid with previously assigned spectrum of HEPN. The combined chemical shift perturbations in the ^1H and ^15N dimensions of each peak, calculated as (ΔδH ^2 + (0.2 × ΔδN)^2)^0.5, were plotted against the residue number.

Assay [3] deals with T1, HEPN domain of sacsin (GST-HEPN). The experiment in a line: FP titration assay (fluorescent ATP probe vs GST-HEPN). Conditions: for Kd: 20 mM Bis-tris pH 6.50, 100 mM NaCl. On the procedure:
N-methylanthraniloyl 8[(4-amino)butyl]-amino-ATP (MABA-ATP) and fluorescein-12-ATP (F12-ATP) were purchased from Jena Bioscience and PerkinElmer, respectively. The excitation and emission wavelengths of MABA-ATP were reported to be 335 nm and 440 nm, and those of F12-ATP were reported to be 496 nm and 517 nm by the commercial suppliers. The optimal excitation and emission wavelengths were determined under FP assay conditions using 0.2 μM MABA-ATP and 3.3 nM F12-ATP in 100 mM NaCl, 20 mM Bis-tris, pH 6.5.
(§1) A fixed concentration of the probe (0.5 μM MABA-ATP or 5 nM F12-ATP) was put in each well followed by a serial dilution of GST-HEPN starting at 10 μM. The assay was conducted in 20 mM Bis-tris pH 6.50 and 100 mM NaCl and the final volume in each well was 100 μl. The total fluorescence and fluorescence polarization signals of each well were recorded on a SpectraMax M5e Microplate Reader at the optimal excitation and emission wavelengths of the probes. A titration curve was generated by plotting the fluorescence polarization signals as milli-polarization units (mP) against a log scale of GST-HEPN concentration (μM).

Assay [4] has as its target GST (Schistosoma japonicum, UniProt P08515). The experiment in a line: GST control FP titration. Particulars: 0.5 μM MABA-ATP or 5 nM F12-ATP titrated against GST. On the procedure:
as §1
Supplementary file pone.0137298.s002.tif: S2 Fig GST control titration. 0.5 μM MABA-ATP and 5 nM F12-ATP were titrated against various concentrations of GST to verify whether GST contributes to the observed FP signal in the presence of GST-HEPN. […] (TIF) Click here for additional data file.

[5] abbreviates: 5 nM F12-ATP and 120 nM GST-HEPN, read-out: affinity for GST-HEPN estimated from FP competition curve, Kd.
The mark [6] stands for this setting: HTS hit confirmation, 5 nM F12-ATP and 200 nM GST-HEPN, read-out: Binding Affinity for HEPN.

Values joined by “and” are separate entries in the source; they are usually repeats but may differ in a detail not shown here. Equal values may be shown once.

GST, sequence (P08515 whole entry): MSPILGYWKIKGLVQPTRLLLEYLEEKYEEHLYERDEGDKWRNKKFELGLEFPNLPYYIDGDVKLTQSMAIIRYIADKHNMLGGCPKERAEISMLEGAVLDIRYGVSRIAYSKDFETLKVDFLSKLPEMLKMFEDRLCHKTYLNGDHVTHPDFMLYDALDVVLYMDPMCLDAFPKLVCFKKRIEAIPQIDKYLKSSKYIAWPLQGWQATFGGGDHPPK

With `Nc1ncnc2c1ncn2[C@@H]1O[C@H](COP(=O)(O)OP(=O)(O)O)[C@@H](O)[C@H]1O` [ADP, adenosine 5´-diphosphate], the Kd in assay [1] (setting [5]) is 19.2 µM. With `Nc1ncnc2c1ncn2C1OC(COP(=O)(O)OP(=O)(O)OCC2OC(O)C(O)C2O)C(O)C1O` (stereo not drawn) [ADP-ribose, adenosine 5´-diphosphoribose], the Kd in assay [1] (setting [5]) was 205 µM. As to `O=C(OCCCl)Oc1c(Br)cc2sc(=O)oc2c1Br` [AG205], the Kd in assay [1] (setting [6]) is 9.4 µM.

As for `Cc1ccccc1NS(=O)(=O)c1ccc(NC(=O)c2n[nH]c([N+](=O)[O-])c2Br)cc1` [AK968], the Kd in assay [1] (setting [6]) worked out at 2.1 µM. For the same compound, the “binding to HEPN observed by NMR (chemical shift perturbations)” value (“binding … (chemical shift perturbations)” below) in assay [2] is recorded as “Binding was observed by NMR”. In the case of `Nc1ncnc2c1ncn2[C@@H]1O[C@H](COP(=O)(O)O)[C@@H](O)[C@H]1O` [AMP, adenosine 5´-monophosphate], the Kd in assay [1] (setting [5]) is 102 µM. As to `O=C(Nc1cccc2c(=O)[nH][nH]c(=O)c12)c1ccc(=O)oc1` [AN652], the Kd in assay [1] (setting [6]) was determined as 2.8 µM. In assay [2], the “binding … (chemical shift perturbations)” value was “Binding was observed by NMR”.

As to `O=c1c(C(c2ccc3c(c2)OCO3)c2c(O)nc3n(c2=O)CCS3)c(O)nc2n1CCS2` [AN670], in assay [1], the “fold higher affinity than the other two HTS hits AK968 and AN652” value was “two- to three-fold”. Further, in assay [1] (setting [6]), the Kd came to 1.1 µM. Moreover, the “binding … (chemical shift perturbations)” value in assay [2] is recorded as “Binding was observed by NMR”. For `Nc1ncnc2c1ncn2[C@@H]1O[C@H](COP(=O)(O)OP(=O)(O)OP(=O)(O)OC[C@H]2O[C@@H](n3cnc4c(N)ncnc43)[C@H](O)[C@@H]2O)[C@@H](O)[C@H]1O` [Ap3A, p1, p3-di(adenosine-5´) triphosphate], the Kd in assay [1] (setting [5]) was 51.2 µM. On the same count and under the same terms, the same measure for `Nc1ncnc2c1ncn2[C@@H]1O[C@H](COP(=O)(O)OP(=O)(O)OP(=O)(O)OP(=O)(O)OC[C@H]2O[C@@H](n3cnc4c(N)ncnc43)[C@H](O)[C@@H]2O)[C@@H](O)[C@H]1O` [Ap4A, p1,-p4-di(adenosine-5´) tetraphosphate]: 20.5 µM; for `CC(C)(COP(=O)(O)OP(=O)(O)OC[C@H]1O[C@@H](n2cnc3c(N)ncnc32)[C@H](O)[C@@H]1OP(=O)(O)O)[C@@H](O)C(=O)NCCC(=O)NCCS` [CoA, coenzyme A]: 5.2 µM. Take `O=C(O)CN(CCN(CC(=O)O)CC(=O)O)CC(=O)O` [EDTA]: the “fold weaker affinity than GTP” value in assay [1] was ~ 500 fold. Also, the Kd in assay [1] (setting [5]) was ~510 µM and 510 µM. The “binding … (chemical shift perturbations)” value in assay [2] is “interacts with GTP- and malonate ion-binding site”.

In the case of `Nc1nc2c(ncn2[C@@H]2O[C@H](COP(=O)(O)OP(=O)(O)OP(=O)(O)OP(=O)(O)O)[C@@H](O)[C@H]2O)c(=O)[nH]1` [G-tetra-P, guanosine 5´-tetraphosphate], in assay [1], the “fold higher affinity for HEPN than GTP” value is reported as “about two-fold”. For the same compound, in assay [1] (setting [5]), the Kd is 0.47 µM. Besides, the “binding … (chemical shift perturbations)” value in assay [2] is given as “Changes in chemical shifts were observed for most GTP-binding residues”. Consider `Nc1nc2c(ncn2[C@@H]2O[C@H](COP(=O)(O)OP(=O)(O)O)[C@@H](O)[C@H]2O)c(=O)[nH]1` [GDP, guanosine 5´-diphosphate], for which, in assay [1] (setting [5]), the Kd was 1.23 µM. For the compound `Nc1nc2c(ncn2[C@@H]2O[C@H](COP(=O)(O)OP(=O)(O)OP(=O)(O)O)[C@@H](O)[C@H]2O)c(=O)[nH]1` [GTP, guanosine 5´-triphosphate], the “fold higher affinity relative to ATP” value in assay [1] is “approximately 6 fold”. The Kd in assay [1] (setting [5]) is 0.81 µM. The “binding … (chemical shift perturbations)” value in assay [2] was “binds to HEPN at its dimerization surface”. As to `Nc1nc2c(ncn2[C@@H]2O[C@H](COP(=O)(O)OP(=O)(O)OP(=O)(O)OP(=O)(O)OC[C@H]3O[C@@H](n4cnc5c(=O)[nH]c(N)nc54)[C@H](O)[C@@H]3O)[C@@H](O)[C@H]2O)c(=O)[nH]1` [Gp4G, p1, p4-di(guanosine-5´) tetraphosphate], the Kd in assay [1] (setting [5]) was 1.23 µM. The same measure, in the same setting: the same measure for `O=P(O)(O)OC1C(OP(=O)(O)O)C(OP(=O)(O)O)C(OP(=O)(O)O)C(OP(=O)(O)O)C1OP(=O)(O)O` (stereo not drawn) [IP6, phytic acid/myo-inositol hexakis(dihydrogen phosphate)]: 8.46 µM. On to `CNc1ccccc1C(=O)NCCCCNc1nc2c(N)ncnc2n1[C@@H]1O[C@H](COP(=O)(O)OP(=O)(O)OP(=O)(O)O)[C@@H](O)[C@H]1O` [MABA-ATP, N-methylanthraniloyl 8[(4-amino)butyl]-amino-ATP], for which the Kd in assay [3] (0.5 μM MABA-ATP titrated against GST-HEPN, read-out: binding affinity of the probe estimated from the titration curve) was ~3 µM and 3 µM. The “binding of probe to GST alone” value in assay [4] is reported as “did not show binding”. For the compound fluorescein-12-ATP [F12-ATP], the “fold higher affinity relative to ATP” value in assay [1] is 65 fold. In addition, the Kd in assay [3] (5 nM F12-ATP titrated against GST-HEPN, read-out: binding affinity of the probe estimated from the titration curve (KD1)) was 0.078 µM and ~0.078 µM. For the same compound, the “fold decrease in affinity upon the addition of MgCl2” value in assay [3] (F12-ATP vs GST-HEPN titration in the presence of 1 mM MgCl2 compared to without MgCl2) turned out to be 10 fold. The “binding of probe to GST alone” value in assay [4] was “did not show binding”. Moreover, the “binding … (chemical shift perturbations)” value in assay [2] was “interacts with all HEPN residues involved in GTP-binding”.
